Results on 5 compounds are retold here after ChEMBL document CHEMBL1201862, “PubChem BioAssay data set” (2004).

Calls of active or inactive are those of the source.

The subject of series [1] is HEK293. Kind of series: inhibition of NOD1-driven NF-kB reporter – cell-based, luminescence, uHTS, primary screen (AID 1578). The class given is functional. Particulars: Homo sapiens.
Series [2] deals with HEK293. In words: cells. The class given is functional, cell-based. Conditions: Homo sapiens.
For series [3], the system named is HEK293. Kind of series: cells. Particulars: Homo sapiens. The class given is functional, cell-based. The source holds these as a separate data set.
Series [4] addresses Nucleotide-binding oligomerization domain-containing protein 2 (Homo sapiens, UniProt Q9HC29). Kind of series: inhibition of NOD2-driven NF-kB reporter – cell-based, luminescence, uHTS, HEK293 (AID 1566). The class given is functional.
Series [5] relates to HEK293. In words: NOD2 signaling inhibitors in MDP-stimulated cells, cell-based, uHTS, luminescence (AID 2001). Type of series: functional. Conditions: Homo sapiens.
In series [6] the test system is HEK293. In words: cells. The class given is functional, cell-based. Particulars: Homo sapiens. This is another data set of the same source.
For a further series, the target named is Exodeoxyribonuclease V (Escherichia coli (strain K12), UniProt P04993+P07648+P08394). In words: RecBCD inhibition via phage-restricted bacterial growth – absorbance, V66 E. coli, mutant T4 phage, counter-screen for AddAB inhibitor project, dose response (AID 492957). The class given is functional, cell-based, Escherichia coli str. K-12 substr. MG1655.
A short description of series [7]: THP-1 cell cytotoxicity, dose response, cytotoxicity control for non-replicating M. tuberculosis project (AID 489025). Type of series: functional.
Series [8] can be described thus: Counterscreen for AddAB inhibitors: absorbance-based bacterial cell-based high throughput dose response assay for inhibitors of bacterial viability. [Related pubchem assays (depositor defined):AID435030, AID449728, AID449731, AID488942, AID488955, AID488956]. The class given is functional.
The nature of the next series: cells. The class given is functional.
For series [9], the target named is T1, Mannose-6-phosphate isomerase (Homo sapiens, UniProt P34949).
T1 sequence (P34949 whole entry): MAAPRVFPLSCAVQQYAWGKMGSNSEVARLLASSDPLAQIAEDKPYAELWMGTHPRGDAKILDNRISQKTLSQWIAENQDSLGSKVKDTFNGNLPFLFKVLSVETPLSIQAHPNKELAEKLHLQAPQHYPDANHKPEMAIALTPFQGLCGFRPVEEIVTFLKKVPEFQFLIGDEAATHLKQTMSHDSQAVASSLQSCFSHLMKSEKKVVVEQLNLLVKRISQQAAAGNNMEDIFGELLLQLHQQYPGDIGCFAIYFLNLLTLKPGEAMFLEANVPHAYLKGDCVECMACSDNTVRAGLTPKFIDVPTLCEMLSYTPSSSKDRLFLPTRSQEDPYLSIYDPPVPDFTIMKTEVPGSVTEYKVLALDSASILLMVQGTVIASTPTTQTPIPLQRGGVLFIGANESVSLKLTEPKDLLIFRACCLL
Kind of series: phosphomannose isomerase inhibition – biochemical, fluorescence intensity, confirmation (AID 1535).

For another series, the target named is Phosphomannomutase 2 (Homo sapiens, UniProt O15305). Kind of series: Counter screen SAR assay for PMM2 inhibitors via a fluorescence intensity assay. [Related pubchem assays (depositor defined):AID1545, AID1574].
Chain of Phosphomannomutase 2 (O15305 whole entry): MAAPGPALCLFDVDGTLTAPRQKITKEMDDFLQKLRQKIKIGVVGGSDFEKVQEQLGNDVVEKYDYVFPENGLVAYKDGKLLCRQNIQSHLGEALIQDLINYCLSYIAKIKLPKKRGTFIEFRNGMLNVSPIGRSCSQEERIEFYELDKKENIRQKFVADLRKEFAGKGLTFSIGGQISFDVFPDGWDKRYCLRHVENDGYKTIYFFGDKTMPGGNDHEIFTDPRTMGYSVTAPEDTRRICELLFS
Series [10] deals with T2, Tyrosine-protein phosphatase non-receptor type 7 (Homo sapiens, UniProt P35236).
T2 sequence (P35236 whole entry): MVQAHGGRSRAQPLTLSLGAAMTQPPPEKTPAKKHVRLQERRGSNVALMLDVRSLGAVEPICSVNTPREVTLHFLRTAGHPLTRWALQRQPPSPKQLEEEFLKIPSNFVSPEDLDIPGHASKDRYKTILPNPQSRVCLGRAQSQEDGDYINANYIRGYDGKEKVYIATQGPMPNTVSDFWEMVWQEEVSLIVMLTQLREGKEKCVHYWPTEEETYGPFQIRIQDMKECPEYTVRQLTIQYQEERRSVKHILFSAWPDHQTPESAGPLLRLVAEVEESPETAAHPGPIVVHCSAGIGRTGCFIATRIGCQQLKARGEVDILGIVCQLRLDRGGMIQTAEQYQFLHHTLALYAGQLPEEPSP
Type of series: functional.

The target in series [11] is T3, Tyrosine-protein phosphatase non-receptor type 22 (Homo sapiens, UniProt Q9Y2R2).
T3 sequence (Q9Y2R2 whole entry): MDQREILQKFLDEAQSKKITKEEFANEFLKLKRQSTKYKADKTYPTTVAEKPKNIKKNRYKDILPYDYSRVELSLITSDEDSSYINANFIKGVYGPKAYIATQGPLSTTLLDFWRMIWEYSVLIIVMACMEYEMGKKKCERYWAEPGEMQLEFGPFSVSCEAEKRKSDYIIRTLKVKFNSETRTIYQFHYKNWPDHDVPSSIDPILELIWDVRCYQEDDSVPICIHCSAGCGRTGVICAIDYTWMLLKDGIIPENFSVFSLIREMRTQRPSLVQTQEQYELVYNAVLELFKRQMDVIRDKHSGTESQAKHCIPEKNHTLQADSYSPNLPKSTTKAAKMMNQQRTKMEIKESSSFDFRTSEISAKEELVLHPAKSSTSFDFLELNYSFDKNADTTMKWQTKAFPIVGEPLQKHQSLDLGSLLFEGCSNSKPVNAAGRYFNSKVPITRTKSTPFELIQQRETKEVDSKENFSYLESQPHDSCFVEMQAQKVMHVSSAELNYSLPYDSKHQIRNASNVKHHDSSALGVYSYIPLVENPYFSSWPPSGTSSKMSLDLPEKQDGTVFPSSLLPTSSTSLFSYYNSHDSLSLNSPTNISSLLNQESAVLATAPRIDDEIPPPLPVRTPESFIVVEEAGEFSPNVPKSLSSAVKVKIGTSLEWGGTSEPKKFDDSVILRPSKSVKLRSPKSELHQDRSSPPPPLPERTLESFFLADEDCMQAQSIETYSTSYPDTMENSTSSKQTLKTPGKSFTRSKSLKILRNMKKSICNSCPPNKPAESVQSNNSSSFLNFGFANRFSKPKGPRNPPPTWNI
Type of series: functional.

A further series deals with T4, Hexokinase HKDC1 (Homo sapiens, UniProt Q2TB90).
T4 sequence (Q2TB90 whole entry): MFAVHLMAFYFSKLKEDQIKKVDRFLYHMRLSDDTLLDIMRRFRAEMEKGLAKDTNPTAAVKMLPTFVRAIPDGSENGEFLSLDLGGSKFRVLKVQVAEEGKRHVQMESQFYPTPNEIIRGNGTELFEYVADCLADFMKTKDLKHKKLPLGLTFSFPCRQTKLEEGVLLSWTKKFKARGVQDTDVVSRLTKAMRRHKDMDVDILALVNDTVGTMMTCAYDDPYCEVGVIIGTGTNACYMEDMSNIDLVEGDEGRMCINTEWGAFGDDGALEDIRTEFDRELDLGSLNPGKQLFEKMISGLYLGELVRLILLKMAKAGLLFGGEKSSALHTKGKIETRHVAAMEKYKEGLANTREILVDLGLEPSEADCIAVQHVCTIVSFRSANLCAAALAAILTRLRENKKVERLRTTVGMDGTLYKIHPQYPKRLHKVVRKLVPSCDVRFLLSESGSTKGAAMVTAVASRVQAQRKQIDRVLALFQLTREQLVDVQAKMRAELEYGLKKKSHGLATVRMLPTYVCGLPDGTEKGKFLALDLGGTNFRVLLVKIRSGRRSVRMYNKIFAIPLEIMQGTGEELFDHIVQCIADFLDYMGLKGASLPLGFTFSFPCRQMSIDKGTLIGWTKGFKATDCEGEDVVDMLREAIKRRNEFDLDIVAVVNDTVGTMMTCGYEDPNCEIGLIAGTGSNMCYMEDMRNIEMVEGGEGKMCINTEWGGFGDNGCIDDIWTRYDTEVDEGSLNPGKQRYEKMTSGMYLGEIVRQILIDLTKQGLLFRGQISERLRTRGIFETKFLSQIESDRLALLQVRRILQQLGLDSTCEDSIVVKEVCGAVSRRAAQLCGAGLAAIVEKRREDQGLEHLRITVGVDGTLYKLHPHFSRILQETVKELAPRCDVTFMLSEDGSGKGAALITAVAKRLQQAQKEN
Kind of series: activation of HKDC1 glucose phosphorylation – biochemical, W721R variant, dose response (AID 504730). Type of series: functional.

Series [12] deals with T3, Tyrosine-protein phosphatase non-receptor type 22. The class given is functional. This is another data set of the same source.
A further series deals with T5, Hexokinase-1 (Homo sapiens, UniProt P19367).
T5 sequence (P19367 whole entry): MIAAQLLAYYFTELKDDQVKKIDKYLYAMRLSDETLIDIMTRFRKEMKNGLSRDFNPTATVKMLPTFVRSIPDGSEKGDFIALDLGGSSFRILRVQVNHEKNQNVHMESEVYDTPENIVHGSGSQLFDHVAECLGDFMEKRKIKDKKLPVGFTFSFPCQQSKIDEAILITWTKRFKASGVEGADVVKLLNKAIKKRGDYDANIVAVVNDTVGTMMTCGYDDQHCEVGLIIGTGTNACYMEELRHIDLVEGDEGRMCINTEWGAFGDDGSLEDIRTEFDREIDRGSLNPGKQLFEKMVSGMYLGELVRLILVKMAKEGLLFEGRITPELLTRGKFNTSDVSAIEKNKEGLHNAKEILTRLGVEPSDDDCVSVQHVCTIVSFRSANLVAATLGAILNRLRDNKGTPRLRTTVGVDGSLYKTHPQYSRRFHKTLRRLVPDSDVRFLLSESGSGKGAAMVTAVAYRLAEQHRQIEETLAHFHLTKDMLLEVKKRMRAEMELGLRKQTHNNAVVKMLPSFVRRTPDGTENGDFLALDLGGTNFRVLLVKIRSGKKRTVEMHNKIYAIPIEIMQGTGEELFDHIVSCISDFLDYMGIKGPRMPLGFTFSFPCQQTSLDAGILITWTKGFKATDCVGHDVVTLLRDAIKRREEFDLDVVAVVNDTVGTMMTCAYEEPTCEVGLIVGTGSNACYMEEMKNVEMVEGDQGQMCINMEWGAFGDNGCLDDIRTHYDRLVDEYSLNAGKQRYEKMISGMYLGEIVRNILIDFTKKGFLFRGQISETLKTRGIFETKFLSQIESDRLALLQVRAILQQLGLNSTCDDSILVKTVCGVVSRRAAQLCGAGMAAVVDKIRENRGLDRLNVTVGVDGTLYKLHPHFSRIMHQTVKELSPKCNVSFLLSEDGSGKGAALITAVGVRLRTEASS
In words: HK1 enzyme activation by HKDC1 hits – biochemical, selectivity assay for HKDC1 activator project, dose response (AID 504762). Type of series: functional.

A short description of series [13]: viability of uninfected HEp-2 cells – cell-based, HTS, cytotoxicity control for RSV inhibitor project, dose response (AID 2410). The class given is functional. Conditions: human respiratory syncytial virus.
In series [14] the target is T6, Delta-type opioid receptor (Homo sapiens, UniProt P41143). In words: HTS Image-Based Screen for Antagonists of the DOR Receptor. [Related pubchem assays (depositor defined):AID1777, AID1785, AID1786, AID2133]. Type of series: functional.
T6 sequence (P41143 whole entry): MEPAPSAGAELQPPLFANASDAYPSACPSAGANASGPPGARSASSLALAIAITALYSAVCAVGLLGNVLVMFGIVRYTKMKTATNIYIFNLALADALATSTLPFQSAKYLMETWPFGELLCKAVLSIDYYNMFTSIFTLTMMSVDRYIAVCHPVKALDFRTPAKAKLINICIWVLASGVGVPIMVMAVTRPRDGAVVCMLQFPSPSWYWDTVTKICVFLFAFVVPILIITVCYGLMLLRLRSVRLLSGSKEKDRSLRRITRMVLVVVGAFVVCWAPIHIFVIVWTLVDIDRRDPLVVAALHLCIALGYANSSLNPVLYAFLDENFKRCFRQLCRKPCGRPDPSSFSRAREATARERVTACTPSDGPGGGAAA
The target of a further series is Mu-type opioid receptor (Homo sapiens, UniProt P35372). Kind of series: HTS Image-Based Screen for Agonists of the MOR Receptor. [Related pubchem assays (depositor defined):AID1777, AID1785, AID1786, AID2133]. The class given is functional.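 Also: imaging of beta-arrestin GFP recruitment into spots after receptor activation.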
Chain of Mu-type opioid receptor (P35372 whole entry): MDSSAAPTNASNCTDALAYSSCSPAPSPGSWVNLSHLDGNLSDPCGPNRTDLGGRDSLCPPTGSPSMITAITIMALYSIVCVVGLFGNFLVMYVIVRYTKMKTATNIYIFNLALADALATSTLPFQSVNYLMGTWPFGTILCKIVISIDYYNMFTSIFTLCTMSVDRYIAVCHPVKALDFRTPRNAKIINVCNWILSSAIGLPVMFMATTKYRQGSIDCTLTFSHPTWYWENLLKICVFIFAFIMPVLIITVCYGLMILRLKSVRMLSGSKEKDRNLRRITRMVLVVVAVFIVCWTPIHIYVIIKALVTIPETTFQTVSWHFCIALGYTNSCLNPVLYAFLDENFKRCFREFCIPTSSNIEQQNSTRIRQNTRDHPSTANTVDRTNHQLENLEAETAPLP
Series [15] concerns the target T6, Delta-type opioid receptor. Kind of series: HTS Image-Based Screen for Agonists of the DOR Receptor. [Related pubchem assays (depositor defined):AID1777, AID1786, AID2133]. The class given is functional.
For series [16], the target named is T7, Kappa-type opioid receptor (Homo sapiens, UniProt P41145). The class given is functional.
T7 sequence (P41145 whole entry): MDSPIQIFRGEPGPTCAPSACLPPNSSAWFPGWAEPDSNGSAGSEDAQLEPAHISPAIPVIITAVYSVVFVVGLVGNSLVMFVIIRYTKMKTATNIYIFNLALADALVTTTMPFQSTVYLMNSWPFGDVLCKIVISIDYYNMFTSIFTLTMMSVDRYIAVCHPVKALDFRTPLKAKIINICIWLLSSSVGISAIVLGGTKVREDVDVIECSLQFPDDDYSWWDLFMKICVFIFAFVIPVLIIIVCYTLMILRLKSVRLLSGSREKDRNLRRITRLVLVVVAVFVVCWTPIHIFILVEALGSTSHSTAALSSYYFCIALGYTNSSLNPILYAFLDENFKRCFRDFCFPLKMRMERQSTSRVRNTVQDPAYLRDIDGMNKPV
Another series concerns the target Beta-galactosidase (Escherichia coli, UniProt Q8VNN2). The class given is functional.
In series [17] the target is T7, Kappa-type opioid receptor. Type of series: functional. The source holds these as a separate data set.
For another series, the target named is T8, Cytochrome P450 1A2 (Homo sapiens, UniProt P05177).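 Also: PubChem cytochrome P450 panel assay, CYP1A2 panel member.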
T8 sequence (P05177 whole entry): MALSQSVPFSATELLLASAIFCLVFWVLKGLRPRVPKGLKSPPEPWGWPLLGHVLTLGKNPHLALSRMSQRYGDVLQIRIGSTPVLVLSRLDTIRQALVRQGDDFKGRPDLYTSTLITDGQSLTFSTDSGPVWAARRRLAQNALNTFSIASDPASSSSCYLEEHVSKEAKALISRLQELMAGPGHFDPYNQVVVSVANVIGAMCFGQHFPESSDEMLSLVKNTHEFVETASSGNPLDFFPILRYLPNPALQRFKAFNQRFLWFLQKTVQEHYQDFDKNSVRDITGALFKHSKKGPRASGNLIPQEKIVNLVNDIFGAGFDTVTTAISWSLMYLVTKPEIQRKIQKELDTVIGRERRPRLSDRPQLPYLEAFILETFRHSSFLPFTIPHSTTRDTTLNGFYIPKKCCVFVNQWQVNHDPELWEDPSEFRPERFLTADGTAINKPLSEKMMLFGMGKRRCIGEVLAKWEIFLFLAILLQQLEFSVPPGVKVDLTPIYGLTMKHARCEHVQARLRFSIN

Chain of Beta-galactosidase (Q8VNN2 whole entry): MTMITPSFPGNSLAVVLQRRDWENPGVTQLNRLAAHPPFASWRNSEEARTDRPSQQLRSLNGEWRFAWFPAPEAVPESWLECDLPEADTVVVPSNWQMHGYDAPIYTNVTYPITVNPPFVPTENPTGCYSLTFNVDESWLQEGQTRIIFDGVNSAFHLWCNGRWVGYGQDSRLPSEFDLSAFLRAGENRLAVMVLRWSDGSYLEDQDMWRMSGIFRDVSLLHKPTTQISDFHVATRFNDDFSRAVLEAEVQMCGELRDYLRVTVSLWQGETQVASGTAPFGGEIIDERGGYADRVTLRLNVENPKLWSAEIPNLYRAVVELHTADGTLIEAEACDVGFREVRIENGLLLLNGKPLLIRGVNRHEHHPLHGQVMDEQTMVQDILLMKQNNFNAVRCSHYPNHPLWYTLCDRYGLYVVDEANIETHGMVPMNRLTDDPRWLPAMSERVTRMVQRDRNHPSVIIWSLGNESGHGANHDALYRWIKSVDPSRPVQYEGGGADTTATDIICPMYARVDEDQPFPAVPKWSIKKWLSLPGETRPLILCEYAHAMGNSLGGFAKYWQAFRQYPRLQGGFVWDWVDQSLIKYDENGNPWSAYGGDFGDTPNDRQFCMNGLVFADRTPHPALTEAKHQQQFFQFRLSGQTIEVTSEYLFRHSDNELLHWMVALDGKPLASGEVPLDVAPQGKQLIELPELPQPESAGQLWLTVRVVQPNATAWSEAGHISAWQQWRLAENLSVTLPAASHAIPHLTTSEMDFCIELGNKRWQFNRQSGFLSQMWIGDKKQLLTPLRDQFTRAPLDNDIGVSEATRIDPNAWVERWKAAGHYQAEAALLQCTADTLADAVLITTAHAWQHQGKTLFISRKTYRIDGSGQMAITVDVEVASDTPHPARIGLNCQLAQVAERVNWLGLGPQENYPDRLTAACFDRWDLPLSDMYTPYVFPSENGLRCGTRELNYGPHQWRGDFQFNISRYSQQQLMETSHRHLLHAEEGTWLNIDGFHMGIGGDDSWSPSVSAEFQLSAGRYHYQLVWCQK
Chain of Nucleotide-binding oligomerization domain-containing protein 2 (Q9HC29 whole entry, the tested form may be a part): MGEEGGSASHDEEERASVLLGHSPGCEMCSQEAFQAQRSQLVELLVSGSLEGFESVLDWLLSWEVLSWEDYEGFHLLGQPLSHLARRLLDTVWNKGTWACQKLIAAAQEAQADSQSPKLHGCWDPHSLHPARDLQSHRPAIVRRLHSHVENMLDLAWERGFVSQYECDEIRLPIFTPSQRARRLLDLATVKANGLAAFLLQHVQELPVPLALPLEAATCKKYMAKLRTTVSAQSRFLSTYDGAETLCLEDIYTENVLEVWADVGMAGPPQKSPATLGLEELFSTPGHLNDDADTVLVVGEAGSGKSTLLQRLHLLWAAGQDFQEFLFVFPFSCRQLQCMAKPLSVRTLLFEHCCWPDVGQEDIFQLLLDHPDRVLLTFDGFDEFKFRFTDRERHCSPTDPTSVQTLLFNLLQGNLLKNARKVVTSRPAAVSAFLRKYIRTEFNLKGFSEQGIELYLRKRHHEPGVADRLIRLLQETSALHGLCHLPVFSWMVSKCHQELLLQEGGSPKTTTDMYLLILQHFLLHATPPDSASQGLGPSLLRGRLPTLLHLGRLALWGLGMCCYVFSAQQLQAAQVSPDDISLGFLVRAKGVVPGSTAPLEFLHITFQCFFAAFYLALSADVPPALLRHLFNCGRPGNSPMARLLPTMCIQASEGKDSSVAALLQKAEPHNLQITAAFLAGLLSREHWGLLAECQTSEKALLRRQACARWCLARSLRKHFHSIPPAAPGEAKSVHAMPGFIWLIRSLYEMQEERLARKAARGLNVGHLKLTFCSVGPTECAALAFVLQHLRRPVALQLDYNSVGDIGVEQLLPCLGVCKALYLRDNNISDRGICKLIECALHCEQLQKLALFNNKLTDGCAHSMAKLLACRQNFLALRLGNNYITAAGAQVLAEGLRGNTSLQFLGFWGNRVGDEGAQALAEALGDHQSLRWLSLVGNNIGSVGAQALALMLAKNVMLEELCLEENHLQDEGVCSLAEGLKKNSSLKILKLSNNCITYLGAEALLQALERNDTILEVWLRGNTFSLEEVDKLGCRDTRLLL

As for `Nc1nonc1C(=O)N/N=C/c1ccc([N+](=O)[O-])o1`, the concentration giving a half-maximal response (EC50) with HEK293 [1] is 8.5 µM (active); in series [4], 5.54 µM (active). Also, the IC50 in the series on HEK293 [2] is > 20 µM (inactive); in the series on HEK293 [3], > 20 µM (inactive); in the series with HEK293 [5] it was > 20 µM (inactive); in the series on HEK293 [6] it was > 20 µM (inactive); at Exodeoxyribonuclease V, 56.4 µM (inactive); in series [8], 14.9 µM (inactive). In addition, in “cells”, the IC50 was 7.01 µM (active). Further, the CC50 in series [7] was > 40 µM (active).
For the compound `CCc1cc(CC)c(/N=c2\ssnc2Cl)c(CC)c1`, the IC50 (in series [9]; on Phosphomannomutase 2) was > 100 µM (inactive) each time.
For `COc1cc(SC#N)ccc1/N=C/c1c(C)[nH]n(-c2ccc(Cl)cc2)c1=O`, the IC50 in series [10], in series [11] and in [12] was > 79.4 µM (inactive) in each case. In addition, the EC50 on Hexokinase HKDC1 and at Hexokinase-1 was > 80 µM (inactive) in each case.
In the case of `Nc1c2c(nc3sc4c(c13)CCCC4)CCCC2`, in [13], the 50% cytotoxic concentration (CC50) is 25.7 µM (active). Moreover, the IC50 in series [14] was > 32 µM (inactive); in [16], 9.82 µM (active); in series [17] it was 6.99 µM. In addition, the figures for the EC50 (on Mu-type opioid receptor; in series [15]; at Beta-galactosidase) were > 32 µM (inactive), > 32 µM (inactive) and > 31.5 µM (inactive), respectively.
With `N[C@H]1[C@@H](C(=O)O)[C@H]2C=C[C@H]1C2.O=S(=O)(O)c1ccccc1`, the AC50 entry on Cytochrome P450 1A2 was “inactive”.
